The values below come from paper PMC9024977, “In Vitro and In Silico Studies of Human Tyrosyl-DNA Phosphodiesterase 1 (Tdp1) Inhibition by Stereoisomeric Forms of Lipophilic Nucleosides: The Role of Carbohydrate Stereochemistry in Ligand-Enzyme Interactions” (Molecules, 2022).

Molecules are shown by their SMILES.

For orientation: IC50 means the concentration that inhibits the measured activity by half.

In test [1] the target is T1, Tdp1 (Homo sapiens, UniProt Q9NUW8). Nature of the test: Real-time detection of Tdp1 activity (oligonucleotide biosensor, FAM/BHQ1). The format is biochemical. Further details: key to Eut/Dis: The stereoisomer with the greater inhibitory activity is termed the eutomer (Eut); that with the lower activity, the distomer (Dis). The note with it: for IC50: 1.5 nM Tdp1, 50 nM biosensor, 26 °C, three independent experiments; for ER (eudismic ratio): IC50 (Eutomer)/IC50 (Distomer); for ER (eudismic ratio) / EI (eudismic index): per stereoisomer pair; for Eut/Dis: eutomer or distomer within the stereoisomer pair; for EI (eudismic index): −logER. As for the experimental part: The measurement of Tdp1 inhibition was performed using a real-time oligonucleotide biosensor based on the capability of Tdp1 to remove fluorophore quenchers from the 3′-end of DNA [31]. The single-stranded Tdp1 substrate was a 16-mer oligonucleotide containing a 5′-FAM (6-carboxyfluorescein) fluorophore donor and a 3′-BHQ1 quencher (black hole quencher 1). When a quencher is removed by Tdp1, FAM fluorescence flares up and can be detected by a fluorimeter. In the presence of an inhibitor, fluorescence intensity decreases. The obtained Tdp1 activity versus inhibitor concentration curves were used to calculate IC50 values. We also studied other structurally related compounds, such as optically active benzoylated arabinofuranose and ribofuranose to ascertain the influence of a heterocyclic base on biological activity (Table 1).
T1 sequence (Q9NUW8 whole entry): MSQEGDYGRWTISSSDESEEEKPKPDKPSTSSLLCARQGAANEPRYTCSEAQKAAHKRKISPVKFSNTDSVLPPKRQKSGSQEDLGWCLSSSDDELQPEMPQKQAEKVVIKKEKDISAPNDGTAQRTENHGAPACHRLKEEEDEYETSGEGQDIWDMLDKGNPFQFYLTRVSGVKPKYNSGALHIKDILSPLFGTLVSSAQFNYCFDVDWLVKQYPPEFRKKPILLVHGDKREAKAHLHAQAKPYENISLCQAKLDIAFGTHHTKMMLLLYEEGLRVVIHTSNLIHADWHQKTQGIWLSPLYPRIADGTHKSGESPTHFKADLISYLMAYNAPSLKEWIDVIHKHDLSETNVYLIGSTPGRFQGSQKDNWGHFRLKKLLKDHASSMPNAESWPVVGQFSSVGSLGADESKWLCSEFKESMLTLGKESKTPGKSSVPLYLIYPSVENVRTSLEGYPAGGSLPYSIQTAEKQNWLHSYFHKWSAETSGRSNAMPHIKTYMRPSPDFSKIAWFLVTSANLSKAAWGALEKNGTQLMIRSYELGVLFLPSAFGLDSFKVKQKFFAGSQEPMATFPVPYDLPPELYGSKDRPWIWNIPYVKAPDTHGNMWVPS
Real-time detection of Tdp1 activity was reported in our previous work. This approach involves measuring the fluorescence intensity during the reaction of quencher removal from a fluorophore-quencher coupled to a DNA-oligonucleotide catalyzed by Tdp1 in the presence of inhibitor (the control samples contained 1% DMSO). Reaction mixtures ([…]) contained Tdp1 buffer (50mM Tris-HCl, pH 8.0, 50mM NaCl, 7mM β-mercaptoethanol), 50 nM biosensor, testable inhibitor, and purified Tdp1 (1.5 nM). The biosensor was a single-stranded oligonucleotide (5′-[FAM] AAC GTC AGGGTC TTC C [BHQ]-3′) containing a fluorophore at the 5′-end (5,6-FAM) and black hole quencher 1 (BHQ) at the 3′-end that was synthesized in the Laboratory of nucleic acid chemistry at the Institute of Chemical Biology and Fundamental Medicine, Novosibirsk, Russia. The reactions were incubated at a constant temperature of 26 °C in a POLARstar OPTIMA fluorimeter (BMG LABTECH, GmbH, Soest, Germany) set to measure fluorescence every 55 s (Ex485/Em520 nm) during the linear phase (from 0 to 8 min). The values for half maximal inhibitory concentration (IC50) were determined using a six-point concentration response curve in three independent experiments and calculated using MARS Data Analysis 2.0 (BMG LABTECH, Soest, Germany).

For another test, the system named is recombinant human Tdp1. The experiment in a line: Steady-state kinetic analysis of Tdp1 enzymatic reaction. The format is biochemical. Conditions: from dependence of Vmax and KM on inhibitor concentration. As for the experimental part:
To confirm the interaction model obtained by molecular docking, the type of inhibition by compounds 3D, 3L, 7R, and 7S was determined by a steady-state kinetic assay. During the experiment, dependence curves of the enzymatic reaction rate (V) on substrate concentration (S) in the presence of different concentrations of the inhibitors were obtained (Figures S36–S39 in Supplementary Materials). The apparent Michaelis constant (KM) and the maximum reaction rate (Vmax) were calculated according to the Michaelis–Menten equation. Conclusions about the type of inhibition were made from the characteristics of the dependence of Vmax and KM on the concentration of the inhibitor.
To determine the apparent maximum rate of enzymatic reaction (Vmax), Michaelis constant (KM), and possible inhibition mechanism, steady-state kinetic experiments were carried out at five fixed concentrations for the substrate with various inhibitor concentrations. The standard reaction mixtures (200 μL) contained 50 nM, 100 nM, 200 nM, 500 nM, or 1000 nM substrate, testable inhibitor, 1.5 nM recombinant human Tdp1, and reaction buffer components (50 mM Tris-HCl, pH 8.0, 50 mM NaCl, 7 mM β-mercaptoethanol). After the addition of the enzyme, the reaction mixtures were incubated at a constant temperature of 26 °C and measured in a POLARstar OPTIMA fluorimeter (BMG LABTECH, GmbH) set to measure fluorescence every 55 s (Ex485/Em520 nm) during the linear phase (0 to 8 min). The initial data (kinetic curves) were obtained in three independent experiments and statistically processed with OriginPro 8.6.0 software.

Test [2] deals with T1, Tdp1. Nature of the test: Fluorescence anisotropy assay. The note with it: FAM-labeled DNA with Tdp1, increasing inhibitor concentration. It is filed as binding. An excerpt: To clarify the mechanism of action of this compound, the change in the fluorescence anisotropy during the Tdp1 catalytic reaction was studied. This method is based on the ability of fluorescent molecules to be excited by plane-polarized light when their dipole moment is parallel to the plane of polarization. If such a molecule is unable to rotate in space, then the emitted light will be polarized following excitation. Conversely, if the molecule can rotate, then the emitted light is “depolarized”. The minimum anisotropy value corresponds to FAM-labeled DNA (Figure S40, gray graph). When Tdp1 was added, the anisotropy increased due to the binding of the DNA by the enzyme, which prevents its free rotation (Figure S40, red graph).
This means that the inhibitor can bind to the active site of Tdp1 instead of the DNA substrate, thereby reducing the activity of the enzyme by competitive inhibition. This is consistent with the data obtained in the kinetic studies. […] Thus, a competitive component is present when Tdp1 is inhibited by compound 7R; however, this process is more complicated and requires further study with other methods.

In the case of `CO[C@H]1O[C@H](COC(=O)c2ccccc2)[C@@H](OC(=O)c2ccccc2)[C@@H]1OC(=O)c1ccccc1` [Compound 1D, 1-O-methyl-2,3,5-tri-O-benzoyl-α-D-arabinofuranose], on Tdp1 [1], the IC50 was 2.3 ± 0.6 µM, the “ER (eudismic ratio)” value was found to be 0.343, the Eut/Dis result was “Eut” and the “EI (eudismic index)” value is on record as 0.465.
In the case of `CO[C@@H]1O[C@@H](COC(=O)c2ccccc2)[C@H](OC(=O)c2ccccc2)[C@H]1OC(=O)c1ccccc1` [Compound 1L, 1-O-methyl-2,3,5-tri-O-benzoyl-α-L-arabinofuranose], at Tdp1 [1], the IC50 worked out at 6.7 ± 1.9 µM, the “ER (eudismic ratio)” value was determined as 0.343, the Eut/Dis entry is “Dis” and the “EI (eudismic index)” value came to 0.465.
For the molecule `CC(=O)O[C@@H]1O[C@H](COC(=O)c2ccccc2)[C@@H](OC(=O)c2ccccc2)[C@H]1OC(=O)c1ccccc1` [Compound 2D, 1-O-Acetyl-2,3,5-tri-O-benzoyl-β-D-ribofuranose], at Tdp1 [1], the “ER (eudismic ratio)” value is 0.808, the Eut/Dis entry is “Eut” and the “EI (eudismic index)” value is recorded as 0.09.
As to `CC(=O)O[C@H]1O[C@@H](COC(=O)c2ccccc2)[C@H](OC(=O)c2ccccc2)[C@@H]1OC(=O)c1ccccc1` [Compound 2L], on Tdp1 [1], the IC50 was 5.2 ± 0.2 µM, the “ER (eudismic ratio)” value came to 0.808, the Eut/Dis entry is “Dis” and the “EI (eudismic index)” value was determined as 0.09.
With `O=C(OC[C@H]1O[C@@H](n2ccc(=O)[nH]c2=O)[C@H](OC(=O)c2ccccc2)[C@@H]1OC(=O)c1ccccc1)c1ccccc1` [Compound 3D, 2′,3′,5′-tri-O-benzoyl-D-uridine], the type of inhibition result in the test with recombinant human Tdp1 is “uncompetitive”. Also, on Tdp1 [1], the midpoint of inhibition, the IC50, lay at 3.8 ± 0.4 µM; the “ER (eudismic ratio)” value worked out at 0.745; the Eut/Dis result was “Eut”; the “EI (eudismic index)” value is 0.128.
The like results for `O=C(OC[C@@H]1O[C@H](n2ccc(=O)[nH]c2=O)[C@@H](OC(=O)c2ccccc2)[C@H]1OC(=O)c1ccccc1)c1ccccc1` [Compound 3L, 2′,3′,5′-tri-O-benzoyl-L-uridine] were, in that order, “uncompetitive”, 5.1 ± 0.1 µM, 0.745, “Dis” and 0.128.
For the molecule `Cc1cn([C@@H]2O[C@H](COC(=O)c3ccccc3)[C@@H](OC(=O)c3ccccc3)[C@H]2OC(=O)c2ccccc2)c(=O)[nH]c1=O` [Compound 4D, 1-(2,3,5-Tri-O-benzoyl-β-D-ribofuranosyl)thymine], at Tdp1 [1], the “ER (eudismic ratio)” value stood at 0.108, the Eut/Dis entry is listed as “Eut” and the “EI (eudismic index)” value is reported as 0.967.
In the case of `Cc1cn([C@H]2O[C@@H](COC(=O)c3ccccc3)[C@H](OC(=O)c3ccccc3)[C@@H]2OC(=O)c2ccccc2)c(=O)[nH]c1=O` [Compound 4L, 2′,3′,5′-tri-O-benzoyl-L-ribothymidine], at Tdp1 [1], the midpoint of inhibition, the IC50, lay at 25 ± 1 µM; the “ER (eudismic ratio)” value stood at 0.108; the Eut/Dis entry is on record as “Dis”; the “EI (eudismic index)” value is 0.967.
On to `C[C@@H](OC(=O)c1ccccc1)[C@H]1O[C@@H](n2c(=O)cc[nH]c2=O)[C@H](OC(=O)c2ccccc2)[C@@H]1OC(=O)c1ccccc1` [Compound 5R, 3-[5(R)-C-methyl-2,3,5-O-tribenzoyl-β-D-ribofuranosyl]uracil], for which, at Tdp1 [1], the IC50 was found to be 3.1 ± 0.2 µM, the “ER (eudismic ratio)” value was 0.871, the Eut/Dis entry was “Dis” and the “EI (eudismic index)” value is 0.06.
The matching figures for `C[C@H](OC(=O)c1ccccc1)[C@H]1O[C@@H](n2c(=O)cc[nH]c2=O)[C@H](OC(=O)c2ccccc2)[C@@H]1OC(=O)c1ccccc1` [Compound 5S, 3-[5(S)-C-methyl-2,3,5-tri-O-benzoyl-β-D-ribofuranosyl]uracil]: 2.7 ± 0.2 µM, 0.871, “Eut” and 0.06.
The matching figures for `C[C@@H](OC(=O)c1ccccc1)[C@H]1O[C@@H](n2ccc(N)nc2=O)[C@H](OC(=O)c2ccccc2)[C@@H]1OC(=O)c1ccccc1` [Compound 6R, 1-[5(R)-C-methyl-2,3,5-tri-O-benzoyl-β-D-ribofuranosyl]cytosine]: 5.8 ± 0.5 µM, 0.896, “Dis” and 0.048.
Consider `C[C@H](OC(=O)c1ccccc1)[C@H]1O[C@@H](n2ccc(N)nc2=O)[C@H](OC(=O)c2ccccc2)[C@@H]1OC(=O)c1ccccc1` [Compound 6S, 1-[5(S)-C-methyl-2,3,5-tri-O-benzoyl-β-D-ribofuranosyl]cytosine], for which, on Tdp1 [1], half-maximal inhibition (IC50) required 5.2 ± 0.8 µM, the “ER (eudismic ratio)” value came out at 0.896, the Eut/Dis entry was “Eut” and the “EI (eudismic index)” value is given as 0.048.
Consider `C[C@@H](OC(=O)c1ccccc1)[C@H]1O[C@@H](n2cnc3c(NC(=O)c4ccccc4)ncnc32)[C@H](OC(=O)c2ccccc2)[C@@H]1OC(=O)c1ccccc1` [Compound 7R, 5′(R)-C-methyl-2′,3′,5′-tri-O-benzoyl-N^6-benzoyladenosine], for which the type of inhibition entry in the test on recombinant human Tdp1 is “uncompetitive at low inhibitor concentrations and mixed at high”. Also, at Tdp1 [1], half-maximal inhibition (IC50) required 4.4 ± 0.8 µM, the “ER (eudismic ratio)” value came out at 0.956, the Eut/Dis entry is on record as “Eut” and the “EI (eudismic index)” value was 0.0193.
With `C[C@H](OC(=O)c1ccccc1)[C@H]1O[C@@H](n2cnc3c(NC(=O)c4ccccc4)ncnc32)[C@H](OC(=O)c2ccccc2)[C@@H]1OC(=O)c1ccccc1` [Compound 7S, 5′(S)-C-methyl-2′,3′,5′-tri-O-benzoyl-N^6-benzoyladenosine], the type of inhibition result in the test with recombinant human Tdp1 is on record as “competitive”. In addition, on Tdp1 [1], half-maximal inhibition (IC50) was put at 4.6 ± 0.9 µM, the “ER (eudismic ratio)” value is given as 0.956, the Eut/Dis entry is given as “Dis” and the “EI (eudismic index)” value turned out to be 0.0193. For the same molecule, the “change in fluorescence anisotropy” value at Tdp1 [2] is given as “decreased with an increasing concentration of the inhibitor”.
For the molecule `O=c1ccn([C@@H]2O[C@H](CO)[C@@H](O)[C@H]2O)c(=O)[nH]1` [Compound 8D], the IC50 on Tdp1 [1] was > 50 µM.
On the same count and under the same terms, to `O=c1ccn([C@H]2O[C@@H](CO)[C@H](O)[C@@H]2O)c(=O)[nH]1` [Compound 8L] belongs > 50 µM.
